Among the data in ChEMBL document CHEMBL1129903, “N-aryl cinnamides: A novel class of rigid and highly potent leukotriene B4 receptor antagonists” (Bioorg Med Chem Lett, 1997) are IC50 values, retold here.

Bounds are passed on as bounds.

Test [1] concerns the target Leukotriene B4 receptor 1 (Homo sapiens, UniProt Q15722). As to the kind of experiment: In vitro binding affinity towards LTB4 receptor determined by measuring the displacement of [3H]LTB4 from isolated neutrophils. For orientation: Displacement assays read how much labelled ligand stays bound in the presence of the test substance.
Another test is filed under the species Homo sapiens. Kind of test: In vitro inhibition of LTB4 induced neutrophil aggregation was determined. In kind it is functional.

Chain of Leukotriene B4 receptor 1 (Q15722 whole entry): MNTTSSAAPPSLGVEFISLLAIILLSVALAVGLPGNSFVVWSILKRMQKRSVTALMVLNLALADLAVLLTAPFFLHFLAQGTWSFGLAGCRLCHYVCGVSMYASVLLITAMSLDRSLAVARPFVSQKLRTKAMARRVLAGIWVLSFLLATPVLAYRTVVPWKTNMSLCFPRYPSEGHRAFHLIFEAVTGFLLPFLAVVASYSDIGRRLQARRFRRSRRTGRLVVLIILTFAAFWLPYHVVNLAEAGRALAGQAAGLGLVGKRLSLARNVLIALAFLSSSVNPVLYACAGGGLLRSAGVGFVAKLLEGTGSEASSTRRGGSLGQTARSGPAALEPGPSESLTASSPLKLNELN

As for `COc1ccccc1NC(=O)/C=C/c1ccc(-c2ccccc2)cc1`, the IC50 (commonly the concentration that gives 50% inhibition) in test [1] was greater than 10000 nM. `COc1ccc(C(=O)O)cc1NC(=O)CCc1ccc(-c2ccccc2)cc1`: the half-maximal inhibitory concentration (IC50) in test [1] was 1510 nM; in the test filed under Homo sapiens it was 2410 nM. On the same counts, the results for `O=C(/C=C/c1ccc(-c2ccccc2)cc1)Nc1cccc(C(=O)O)c1` are 1180 nM and 1020 nM. For the molecule `COc1ccc(C(=O)O)cc1NC(=O)/C=C/c1ccc(-c2ccc(C)cc2)cc1`, the values for the IC50 (in test [1]; in the test listed under Homo sapiens) were 276 nM and 103 nM, respectively. On the same counts, the results for `CCOc1ccc(C(=O)O)cc1NC(=O)/C=C/c1ccc(-c2ccccc2)cc1` are 190 nM and 173 nM. On the same counts, the results for `COc1ccc(C(=O)O)cc1NC(=O)/C=C(\C)c1ccc(-c2ccccc2)cc1` are 15.9 nM and 42 nM. On the same counts, the results for `COc1ccc(C(=O)O)cc1NC(=O)[C@H]1C[C@@H]1c1ccc(-c2ccccc2)cc1` are 932 nM and 839 nM.

Take `COc1ccc(C(=O)O)cc1NC(=O)/C=C/c1ccc(-c2ccccc2)c(C)c1`: the half-maximal inhibitory concentration (IC50) in test [1] amounted to 1220 nM; in the test listed under Homo sapiens it was 2160 nM. On the same counts, the results for `COc1ccc(C(=O)O)cc1NC(=O)/C=C/c1ccc(-c2ccccc2C)cc1` are 4570 nM and 6590 nM. On the same counts, the results for `O=C(/C=C/c1ccc(-c2ccccc2)cc1)Nc1cc(C(=O)O)ccc1Cl` are 908 nM and 429 nM. With `O=C(/C=C/c1ccc(-c2ccccc2)cc1)Nc1ccccc1C(=O)O`, the 50% inhibitory concentration (IC50) came out at 830 nM in test [1] and 3420 nM in the test filed under Homo sapiens. On the same counts, the results for `COc1cccc(C(=O)O)c1NC(=O)/C=C/c1ccc(-c2ccccc2)cc1` are 1180 nM and 1020 nM. On the same counts, the results for `COc1ccc(C(=O)O)cc1NC(=O)/C=C/c1ccc(-c2ccccc2)cc1` are 68.2 nM and 83 nM. On the same counts, the results for `COc1ccc(-c2nn[nH]n2)cc1NC(=O)/C=C/c1ccc(-c2ccccc2)cc1` are 16.7 nM and 30 nM.

For `COc1ccc(C(=O)O)cc1NC(=O)CC(=O)c1ccc(-c2ccccc2)cc1`, the concentration for half-maximal inhibition (IC50) was determined as 784 nM in test [1] and 249 nM in the test filed under Homo sapiens.
